The values that follow are results of earlier work, collected in patent US20130184316A1, “METHODS FOR DIAGNOSING AND TREATING CONCUSSIVE DISORDERS” (priority 2010, published 2013).

Structures are written as SMILES.

Data set [1] concerns patients with idiopathic cerebellar ataxia. As to conditions: literature (Sprenger et al.); cited from earlier work.
Data set [2] relates to patients with type-2 episodic ataxia (EA2). Conditions: literature reports; cited from earlier work.

Take `Nc1ccncc1N` [3,4-DAP, 3,4-diamino pyridine]: the “Gravity-dependent symptoms associated with ataxic episodes” value in data set [1] is “effective in ameliorating some gravity-dependent symptoms”.

For `CC(=O)Nc1nnc(S(N)(=O)=O)s1` [acetazolamide], the “Symptoms of EA2 (including downbeat nystagmus)” value in data set [2] is listed as “attenuated”.
